Measured values reported in ChEMBL document CHEMBL1201862, “PubChem BioAssay data set” (2004).
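Growth conditions: 96-well plates. Treatment: test compound, 48 hours, 5 concentrations. Analysis: linear interpolation between bracketing concentrations; unreached endpoints set to highest concentration. At the GI50, growth is halved.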 The source made the active and inactive calls. Rule as the data show it: active = GI50 up to about 1.1 µM and inactive = higher.

Experiments:
Experiment in all cases: inhibition of tumour cell growth, NCI panel, 48 h
MCF7 = tested on: MCF7
MOLT-4 = tested on: MOLT-4
EKVX = tested on: EKVX
ACHN = tested on: ACHN
NCI-H460 = tested on: NCI-H460
SW-620 = tested on: SW-620
HL-60 = tested on: HL-60
SK-MEL-5 = tested on: SK-MEL-5
CAKI-1 = tested on: CAKI-1
LOX IMVI = tested on: LOX IMVI
NCI-H522 = tested on: NCI-H522
UACC-257 = tested on: UACC-257
A549 = tested on: A549
SF-539 = tested on: SF-539
SK-MEL-28 = tested on: SK-MEL-28
SF-268 = tested on: SF-268
COLO 205 = tested on: COLO 205
OVCAR-3 = tested on: OVCAR-3
NCI-H226 = tested on: NCI-H226
KM12 = tested on: KM12

Measured: GI50

C/C(CC1C2CCCC1C2)=N\NC(N)=O (stereo not given)
inactive: MCF7 > 100 µM | MOLT-4 > 100 µM | EKVX > 100 µM | ACHN > 100 µM | NCI-H460 > 100 µM | SW-620 > 100 µM | HL-60 > 100 µM | SK-MEL-5 > 100 µM | CAKI-1 > 100 µM | LOX IMVI > 100 µM | NCI-H522 > 100 µM | UACC-257 > 100 µM | A549 > 100 µM | SF-539 > 100 µM | SK-MEL-28 > 100 µM | SF-268 > 100 µM | COLO 205 > 100 µM | OVCAR-3 7.24 µM | NCI-H226 > 100 µM | KM12 > 100 µM

CCOP(=O)(CCCC(O)CNc1nc(N)nc(Cl)c1/N=N/c1ccc(Cl)cc1)OCC (stereo not given)
inactive: MCF7 11.9 µM | MOLT-4 3.24 µM | EKVX 3.63 µM | ACHN 4.05 µM | NCI-H460 11.1 µM | SW-620 12.3 µM | HL-60 1.75 µM | SK-MEL-5 4.66 µM | CAKI-1 3.02 µM | LOX IMVI 3.75 µM | NCI-H522 5.69 µM | UACC-257 5.38 µM | A549 10.6 µM | SF-539 9.25 µM | SK-MEL-28 8.22 µM | SF-268 4.27 µM | COLO 205 6.64 µM | OVCAR-3 5.73 µM | NCI-H226 7.05 µM | KM12 11.2 µM

Cc1cc(-n2c(/C=C/c3ccc(Cl)cc3)nc3cc(Cl)ccc3c2=O)on1
inactive: MCF7 18.9 µM | MOLT-4 > 50 µM | EKVX 22.4 µM | ACHN 7.57 µM | NCI-H460 5.12 µM | SW-620 48 µM | HL-60 > 50 µM | SK-MEL-5 16.4 µM | CAKI-1 > 50 µM | LOX IMVI 15.1 µM | NCI-H522 23.2 µM | UACC-257 > 50 µM | A549 14.1 µM | SF-539 25.6 µM | SK-MEL-28 > 50 µM | SF-268 15.7 µM | COLO 205 18.9 µM | OVCAR-3 10.1 µM | NCI-H226 12.4 µM | KM12 > 50 µM

O=C(O)C1C(Br)(c2ccccc2)C1(Br)c1ccccc1 (stereo not given)
inactive: MCF7 22 µM | MOLT-4 15.2 µM | EKVX 86.7 µM | ACHN 14.3 µM | NCI-H460 14.2 µM | SW-620 31.4 µM | HL-60 12.4 µM | SK-MEL-5 28.8 µM | CAKI-1 23.9 µM | LOX IMVI 22.2 µM | NCI-H522 17.6 µM | UACC-257 48.9 µM | A549 39 µM | SF-539 52.7 µM | SK-MEL-28 21.5 µM | SF-268 24.3 µM | COLO 205 13.4 µM | OVCAR-3 50.4 µM | NCI-H226 27.2 µM | KM12 33.4 µM

COc1cc(/C=C/C(=O)Oc2ccc(NC(C)=O)cc2)ccc1C(=O)OCc1ccccc1
inactive: MCF7 > 86.5 µM | MOLT-4 > 85.3 µM | EKVX > 100 µM | ACHN > 73.8 µM | NCI-H460 > 73.1 µM | SW-620 > 100 µM | HL-60 > 72.3 µM | SK-MEL-5 > 100 µM | CAKI-1 > 93.3 µM | LOX IMVI 67.8 µM | NCI-H522 > 85.9 µM | UACC-257 > 100 µM | A549 > 97.1 µM | SF-539 36.3 µM | SK-MEL-28 > 100 µM | SF-268 56.6 µM | COLO 205 > 100 µM | OVCAR-3 > 100 µM | NCI-H226 > 100 µM | KM12 > 100 µM
